Results: ChEMBL document CHEMBL5465560, “Selectivity Literature for EUbOPEN Chemogenomic Library” (2024)

Legend:
[1] = target: T1, Mitogen-activated protein kinase kinase kinase 7 (Homo sapiens) (UniProt O43318); assay: Selectivity interaction (KinomeScan (DiscoverX)) EUB0000229b MAP3K7; conditions: at 10 µM
T1 sequence (whole entry): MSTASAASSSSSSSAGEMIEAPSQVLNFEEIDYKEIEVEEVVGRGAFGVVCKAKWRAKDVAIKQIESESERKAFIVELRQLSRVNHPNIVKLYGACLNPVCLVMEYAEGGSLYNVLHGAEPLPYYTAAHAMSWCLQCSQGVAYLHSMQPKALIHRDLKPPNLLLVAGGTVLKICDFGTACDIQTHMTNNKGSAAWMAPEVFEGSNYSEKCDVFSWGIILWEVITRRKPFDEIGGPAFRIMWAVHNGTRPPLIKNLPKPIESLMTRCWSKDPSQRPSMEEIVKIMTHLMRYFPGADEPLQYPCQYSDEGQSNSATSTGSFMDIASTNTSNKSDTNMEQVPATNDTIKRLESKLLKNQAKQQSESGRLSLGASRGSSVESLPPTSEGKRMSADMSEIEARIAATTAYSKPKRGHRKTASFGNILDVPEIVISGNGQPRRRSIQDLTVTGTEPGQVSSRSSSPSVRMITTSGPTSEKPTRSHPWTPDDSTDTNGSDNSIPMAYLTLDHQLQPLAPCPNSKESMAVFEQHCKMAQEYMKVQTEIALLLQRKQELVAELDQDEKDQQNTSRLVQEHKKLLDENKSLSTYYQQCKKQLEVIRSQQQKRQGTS

[2] = target: Death-associated protein kinase 1 (Homo sapiens, UniProt P53355); assay: Selectivity interaction (Kinase panel (DSF assay)) EUB0001559a DAPK1
Chain of Death-associated protein kinase 1 (P53355 whole entry, looked up): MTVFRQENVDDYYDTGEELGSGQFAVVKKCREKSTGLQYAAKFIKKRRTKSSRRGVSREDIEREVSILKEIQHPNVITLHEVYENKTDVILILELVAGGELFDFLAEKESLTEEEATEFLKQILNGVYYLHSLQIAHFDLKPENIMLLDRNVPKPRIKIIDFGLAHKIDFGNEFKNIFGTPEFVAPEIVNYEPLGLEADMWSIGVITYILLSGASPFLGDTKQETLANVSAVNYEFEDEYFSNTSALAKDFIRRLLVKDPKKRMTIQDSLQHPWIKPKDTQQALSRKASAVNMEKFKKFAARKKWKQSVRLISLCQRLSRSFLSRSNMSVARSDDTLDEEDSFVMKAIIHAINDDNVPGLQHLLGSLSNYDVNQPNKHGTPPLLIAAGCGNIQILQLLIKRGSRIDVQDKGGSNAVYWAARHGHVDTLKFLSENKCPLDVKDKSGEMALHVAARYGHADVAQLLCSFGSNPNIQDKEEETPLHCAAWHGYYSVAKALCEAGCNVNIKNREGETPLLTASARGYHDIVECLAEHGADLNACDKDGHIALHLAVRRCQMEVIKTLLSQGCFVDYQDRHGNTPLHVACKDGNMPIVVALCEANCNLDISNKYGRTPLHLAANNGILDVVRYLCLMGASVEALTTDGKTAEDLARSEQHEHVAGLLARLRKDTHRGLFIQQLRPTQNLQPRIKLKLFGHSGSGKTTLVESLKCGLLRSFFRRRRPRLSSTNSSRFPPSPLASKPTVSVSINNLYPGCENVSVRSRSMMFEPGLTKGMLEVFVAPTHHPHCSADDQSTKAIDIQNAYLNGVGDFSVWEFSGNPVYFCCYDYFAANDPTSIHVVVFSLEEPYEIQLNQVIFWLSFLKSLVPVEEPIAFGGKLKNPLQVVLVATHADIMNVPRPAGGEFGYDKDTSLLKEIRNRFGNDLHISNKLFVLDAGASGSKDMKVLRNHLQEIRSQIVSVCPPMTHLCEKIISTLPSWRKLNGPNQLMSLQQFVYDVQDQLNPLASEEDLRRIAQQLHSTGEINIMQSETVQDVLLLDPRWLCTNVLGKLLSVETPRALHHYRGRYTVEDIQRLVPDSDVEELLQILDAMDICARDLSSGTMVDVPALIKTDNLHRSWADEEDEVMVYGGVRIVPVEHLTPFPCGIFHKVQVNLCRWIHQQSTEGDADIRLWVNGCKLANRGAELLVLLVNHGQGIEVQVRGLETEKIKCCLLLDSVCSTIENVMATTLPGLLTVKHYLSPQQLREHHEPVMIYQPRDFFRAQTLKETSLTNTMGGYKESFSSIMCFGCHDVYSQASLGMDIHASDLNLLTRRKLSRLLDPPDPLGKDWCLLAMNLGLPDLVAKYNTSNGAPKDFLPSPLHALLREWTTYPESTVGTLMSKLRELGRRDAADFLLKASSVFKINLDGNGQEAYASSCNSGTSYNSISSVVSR

[3] = target: Cholecystokinin receptor type A (Homo sapiens, UniProt P32238); assay: Selectivity interaction (Cholecystokinin A receptor binding assay, human recombinant ) EUB0000877a CCKAR
Chain of Cholecystokinin receptor type A (P32238 whole entry): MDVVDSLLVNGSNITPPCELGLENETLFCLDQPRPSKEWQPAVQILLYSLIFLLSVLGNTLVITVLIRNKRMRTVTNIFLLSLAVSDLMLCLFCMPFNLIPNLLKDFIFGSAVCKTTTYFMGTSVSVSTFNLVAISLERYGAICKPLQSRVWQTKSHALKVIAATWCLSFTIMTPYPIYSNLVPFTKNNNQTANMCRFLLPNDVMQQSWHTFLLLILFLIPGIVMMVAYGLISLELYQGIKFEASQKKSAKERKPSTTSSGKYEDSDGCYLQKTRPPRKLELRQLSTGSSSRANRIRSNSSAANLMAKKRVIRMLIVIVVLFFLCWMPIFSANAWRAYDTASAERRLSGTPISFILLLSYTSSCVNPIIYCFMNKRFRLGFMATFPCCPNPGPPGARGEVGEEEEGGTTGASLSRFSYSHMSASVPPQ

[4] = target: T2, Dual serine/threonine and tyrosine protein kinase (Homo sapiens) (UniProt Q6XUX3); assay: Selectivity interaction (ProQinase) EUB0000171b DSTYK
T2 sequence (whole entry): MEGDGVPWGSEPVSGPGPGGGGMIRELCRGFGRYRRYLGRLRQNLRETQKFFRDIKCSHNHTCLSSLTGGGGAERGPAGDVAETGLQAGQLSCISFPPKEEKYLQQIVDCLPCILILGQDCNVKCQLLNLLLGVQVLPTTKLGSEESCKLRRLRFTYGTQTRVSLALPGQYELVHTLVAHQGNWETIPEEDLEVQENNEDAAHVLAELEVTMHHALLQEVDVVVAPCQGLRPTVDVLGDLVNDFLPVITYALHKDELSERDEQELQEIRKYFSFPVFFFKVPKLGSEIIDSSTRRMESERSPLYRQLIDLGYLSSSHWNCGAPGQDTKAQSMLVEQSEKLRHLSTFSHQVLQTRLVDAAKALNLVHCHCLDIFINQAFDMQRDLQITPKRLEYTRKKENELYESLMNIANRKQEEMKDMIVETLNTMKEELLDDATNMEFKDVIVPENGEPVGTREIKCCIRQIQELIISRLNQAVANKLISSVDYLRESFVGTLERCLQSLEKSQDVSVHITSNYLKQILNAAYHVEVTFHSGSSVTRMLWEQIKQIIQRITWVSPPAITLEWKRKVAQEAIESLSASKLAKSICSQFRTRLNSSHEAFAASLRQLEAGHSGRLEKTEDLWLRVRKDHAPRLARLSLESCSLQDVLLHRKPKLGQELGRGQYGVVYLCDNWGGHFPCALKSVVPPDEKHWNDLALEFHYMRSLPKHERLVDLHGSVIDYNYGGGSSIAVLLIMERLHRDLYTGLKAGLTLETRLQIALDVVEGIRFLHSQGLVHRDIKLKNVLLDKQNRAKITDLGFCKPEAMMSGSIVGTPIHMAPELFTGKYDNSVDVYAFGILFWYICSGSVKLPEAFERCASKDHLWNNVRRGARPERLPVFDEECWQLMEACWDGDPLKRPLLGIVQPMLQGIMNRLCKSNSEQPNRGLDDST

[5] = target: Cyclin-dependent kinase 16 (Homo sapiens) (UniProt Q00536); assay: Selectivity interaction (ActivX KiNativ screen (kinase selectivity in THP-1 cell lysates)) EUB0000639a CDK16; assay type: subcellular; conditions: lysate
Chain of Cyclin-dependent kinase 16 (Homo sapiens) (Q00536 whole entry): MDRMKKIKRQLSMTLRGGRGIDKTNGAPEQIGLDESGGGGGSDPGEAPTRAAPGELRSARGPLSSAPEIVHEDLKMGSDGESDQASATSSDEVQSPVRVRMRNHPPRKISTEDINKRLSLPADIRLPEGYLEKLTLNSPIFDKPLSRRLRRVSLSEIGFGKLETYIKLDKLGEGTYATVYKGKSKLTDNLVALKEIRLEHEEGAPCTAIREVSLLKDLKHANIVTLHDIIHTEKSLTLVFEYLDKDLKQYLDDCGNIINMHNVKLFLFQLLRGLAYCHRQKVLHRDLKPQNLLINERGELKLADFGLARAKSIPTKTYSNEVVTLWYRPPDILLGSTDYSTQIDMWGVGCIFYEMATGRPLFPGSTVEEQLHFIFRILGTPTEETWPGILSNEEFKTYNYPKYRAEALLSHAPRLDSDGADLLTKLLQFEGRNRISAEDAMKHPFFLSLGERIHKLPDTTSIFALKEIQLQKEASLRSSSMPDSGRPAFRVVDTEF

[6] = target: T3, Atypical kinase COQ8B, mitochondrial (Homo sapiens) (UniProt Q96D53); assay: Selectivity interaction (KinomeScan (DiscoverX)) EUB0000655a ADCK4; conditions: at 10 µM
T3 sequence (whole entry): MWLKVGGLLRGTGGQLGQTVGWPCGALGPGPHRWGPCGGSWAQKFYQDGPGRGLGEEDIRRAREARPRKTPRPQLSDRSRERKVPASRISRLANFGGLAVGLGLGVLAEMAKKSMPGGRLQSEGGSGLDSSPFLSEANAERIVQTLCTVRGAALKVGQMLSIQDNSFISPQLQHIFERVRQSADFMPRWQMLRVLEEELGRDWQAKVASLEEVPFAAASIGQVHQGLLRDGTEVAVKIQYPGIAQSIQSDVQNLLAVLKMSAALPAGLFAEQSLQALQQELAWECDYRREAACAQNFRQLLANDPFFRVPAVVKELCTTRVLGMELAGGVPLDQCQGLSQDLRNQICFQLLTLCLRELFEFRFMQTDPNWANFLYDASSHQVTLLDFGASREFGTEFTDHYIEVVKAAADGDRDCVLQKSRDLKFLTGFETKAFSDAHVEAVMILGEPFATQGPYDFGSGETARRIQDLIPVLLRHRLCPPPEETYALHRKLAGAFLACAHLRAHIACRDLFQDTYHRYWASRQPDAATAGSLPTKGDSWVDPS

[7] = target: Serine/threonine-protein kinase pim-2 (Homo sapiens, UniProt Q9P1W9); conditions: at 10 µM
Chain of Serine/threonine-protein kinase pim-2 (Q9P1W9 whole entry, looked up): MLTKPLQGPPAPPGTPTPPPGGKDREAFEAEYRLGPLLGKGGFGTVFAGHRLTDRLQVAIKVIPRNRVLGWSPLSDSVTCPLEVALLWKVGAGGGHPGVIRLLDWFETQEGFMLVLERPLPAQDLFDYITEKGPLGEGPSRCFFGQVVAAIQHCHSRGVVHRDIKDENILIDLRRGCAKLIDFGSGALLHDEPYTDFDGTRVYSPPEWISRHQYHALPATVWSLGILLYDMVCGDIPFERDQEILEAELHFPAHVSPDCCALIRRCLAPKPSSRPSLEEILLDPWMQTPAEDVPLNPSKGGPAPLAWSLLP

[8] = target: T4, Dual specificity mitogen-activated protein kinase kinase 5 (Homo sapiens) (UniProt Q13163); assay: Selectivity interaction (Ambit KINOMEscan and KiNATiv profiling in Jurkat cells) EUB0000090b MAP2K5; assay type: cell-based; conditions: at 1 µM
T4 sequence (whole entry): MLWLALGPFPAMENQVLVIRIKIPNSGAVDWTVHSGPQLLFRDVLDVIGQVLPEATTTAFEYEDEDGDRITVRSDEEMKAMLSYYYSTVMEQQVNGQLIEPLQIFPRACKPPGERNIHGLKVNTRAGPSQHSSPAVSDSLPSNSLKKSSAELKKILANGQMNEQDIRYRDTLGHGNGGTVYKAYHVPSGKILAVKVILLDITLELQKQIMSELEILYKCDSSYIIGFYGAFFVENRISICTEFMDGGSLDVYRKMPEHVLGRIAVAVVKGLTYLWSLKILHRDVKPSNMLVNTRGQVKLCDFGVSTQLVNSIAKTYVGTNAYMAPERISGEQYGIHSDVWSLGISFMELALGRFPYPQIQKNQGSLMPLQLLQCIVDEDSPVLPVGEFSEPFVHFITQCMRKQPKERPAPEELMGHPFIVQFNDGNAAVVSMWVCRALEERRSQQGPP

Question: For `COc1cc(N(C)c2ccnc3ccc(C(F)(F)F)cc23)cc(OC)c1OC`, which % binding [1] is on record?
Answer: 80%

Question: Which dTM [2] does the source give for `CN(C(=O)c1cnn2cccnc12)c1cc2c(cc1N1CCOCC1)C(=O)N(C[C@@H](F)C(C)(C)O)C2` here?
Answer: -0.3 K

Question: `CCC(=O)N1CC[C@H](Nc2ncnc3c2CN(c2cnc(OC)c(C(F)(F)F)c2)CC3)C1` [LENIOLISIB] was tested. Which IC50 [3] did it give?
Answer: > 30 µM

Question: `C=CC(=O)Nc1cccc(C(=O)Nc2ccc(Nc3cc(-c4[nH]c(SC)nc4C)ccn3)cc2)c1` was tested. Which % of control ([4]; at 1 µM) did it give?
Answer: 90%

Question: What about the % of control ([4]; at 5 µM) of the same molecule?
Answer: 67%

Question: For `CC[C@@H]1[C@H](F)C(=O)N[C@@H]1COc1nccc2cc(C(N)=O)c(OC)cc12` [ZIMLOVISERTIB], which % of inhibition ([5]; at 0.01 µM) is on record?
Answer: 16.3%

Question: What about the % of inhibition ([5]; at 0.04 µM) of the same molecule?
Answer: 18.2%

Question: What about the % of inhibition ([5]; at 0.2 µM) of the same molecule?
Answer: 8.4%

Question: What about the % of inhibition ([5]; at 1 µM) of the same molecule?
Answer: 15.9%

Question: And the % of inhibition ([5]; at 5 µM)?
Answer: 47.1%

Question: With `CN(C)CCOc1ccc(-c2nc(-c3ccncc3)c(-c3ccc4c(c3)CC/C4=N\O)[nH]2)cc1` as the molecule, how does the % of control [6] read?
Answer: 45%

Question: With `CCN(CC)CCCCNc1ncc2cc(-c3cc(OC)cc(OC)c3)c(NC(=O)NC(C)(C)C)nc2n1` as the molecule, how does the % of control [7] read?
Answer: 100%

Question: With `CN(C)C/C=C/C(=O)Nc1ccc(C(=O)N2CCCC(Nc3ncc(Cl)c(-c4c[nH]c5ccccc45)n3)C2)cc1` (stereo not drawn) as the molecule, how does the % of control [8] read?
Answer: 97%
